Measured values published in ChEMBL document CHEMBL1201862, “PubChem BioAssay data set” (2004).
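Five compound concentrations were applied to cells in 96-well plates for 48 hours; endpoints were derived by simple linear interpolation of the resulting dose-response curve. GI50 is the concentration that inhibits growth by half.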 The source made the active and inactive calls. Cut-off read from the data, not from the text of the source: active = GI50 up to about 1.1 µM and inactive = higher.

Columns and labels:
Experiment in all cases: NCI-60 cell line screen, 48 h
786-0 = system: 786-0
A498 = system: A498
A549 = system: A549
ACHN = system: ACHN
BT-549 = system: BT-549
CAKI-1 = system: CAKI-1
CCRF-CEM = system: CCRF-CEM
DU-145 = system: DU-145
EKVX = system: EKVX
HCC 2998 = system: HCC 2998
HCT-116 = system: HCT-116
HCT-15 = system: HCT-15
HL-60 = system: HL-60
HOP-62 = system: HOP-62
HT-29 = system: HT-29
Hs-578T = system: Hs-578T
IGROV-1 = system: IGROV-1
K562 = system: K562
KM12 = system: KM12
LOX IMVI = system: LOX IMVI
MCF7 = system: MCF7
MDA-MB-231 = system: MDA-MB-231
MDA-N = system: MDA-N
MOLT-4 = system: MOLT-4
Malme-3M = system: Malme-3M
NCI-H226 = system: NCI-H226
NCI-H23 = system: NCI-H23
NCI-H460 = system: NCI-H460
NCI-H522 = system: NCI-H522
OVCAR-3 = system: OVCAR-3
OVCAR-5 = system: OVCAR-5
OVCAR-8 = system: OVCAR-8
PC-3 = system: PC-3
RPMI-8226 = system: RPMI-8226
RXF 393 = system: RXF 393
SF-268 = system: SF-268
SF-295 = system: SF-295
SF-539 = system: SF-539
SK-MEL-28 = system: SK-MEL-28
SK-MEL-2 = system: SK-MEL-2
SK-MEL-5 = system: SK-MEL-5
SN12C = system: SN12C
SNB-19 = system: SNB-19
SNB-75 = system: SNB-75
SR = system: SR
SW-620 = system: SW-620
T47D = system: T47D
TK-10 = system: TK-10
U-251 = system: U-251
UACC-257 = system: UACC-257
UACC-62 = system: UACC-62
UO-31 = system: UO-31
COLO 205 = system: COLO 205
HOP-92 = system: HOP-92
M14 = system: M14
MDA-MB-435 = system: MDA-MB-435
NCI/ADR-RES = system: NCI/ADR-RES
OVCAR-4 = system: OVCAR-4
SK-OV-3 = system: SK-OV-3

Measured: GI50

Cc1c(C#N)c(N)[nH]c(=S)c1C#N
> 100 µM: HCT-15
inactive: 786-0 > 100 µM | A498 > 100 µM | A549 > 100 µM | ACHN > 100 µM | BT-549 > 100 µM | CAKI-1 > 100 µM | CCRF-CEM > 100 µM | DU-145 > 100 µM | EKVX > 100 µM | HCC 2998 > 100 µM | HCT-116 > 100 µM | HL-60 > 100 µM | HOP-62 > 100 µM | HT-29 > 100 µM | Hs-578T > 100 µM | IGROV-1 > 100 µM | K562 > 100 µM | KM12 > 100 µM | LOX IMVI > 100 µM | MCF7 > 100 µM | MDA-MB-231 > 100 µM | MDA-N > 100 µM | MOLT-4 > 100 µM | Malme-3M > 100 µM | NCI-H226 > 100 µM | NCI-H23 > 100 µM | NCI-H460 > 100 µM | NCI-H522 > 100 µM | OVCAR-3 > 100 µM | OVCAR-5 > 100 µM | OVCAR-8 > 100 µM | PC-3 > 100 µM | RPMI-8226 > 100 µM | RXF 393 > 100 µM | SF-268 > 100 µM | SF-295 > 100 µM | SF-539 > 100 µM | SK-MEL-28 > 100 µM | SK-MEL-2 > 100 µM | SK-MEL-5 > 100 µM | SN12C > 100 µM | SNB-19 > 100 µM | SNB-75 > 100 µM | SR > 100 µM | SW-620 > 100 µM | T47D > 100 µM | TK-10 > 100 µM | U-251 > 100 µM | UACC-257 > 100 µM | UACC-62 > 100 µM | UO-31 > 100 µM

Brc1ccc2[nH]cc([C@@H]3CN[C@@H](c4c[nH]c5ccc(Br)cc45)CN3)c2c1
inactive: 786-0 3.94 µM | A498 15 µM | A549 6.15 µM | ACHN 2.33 µM | BT-549 14.8 µM | CAKI-1 8.93 µM | CCRF-CEM 2.16 µM | COLO 205 1.96 µM | DU-145 3.47 µM | EKVX 5.57 µM | HCC 2998 6.52 µM | HCT-116 4.18 µM | HL-60 1.82 µM | HOP-62 8.18 µM | HOP-92 1.36 µM | HT-29 5.71 µM | Hs-578T 6.95 µM | IGROV-1 3.41 µM | K562 1.77 µM | KM12 2.07 µM | LOX IMVI 1.66 µM | M14 5.25 µM | MCF7 3.66 µM | MDA-MB-231 3.79 µM | MDA-MB-435 3.9 µM | MOLT-4 1.98 µM | Malme-3M 14.8 µM | NCI-H226 7.55 µM | NCI-H23 9.95 µM | NCI-H460 7.57 µM | NCI-H522 2.21 µM | NCI/ADR-RES 7.66 µM | OVCAR-3 4.8 µM | OVCAR-4 4.76 µM | OVCAR-5 7.89 µM | OVCAR-8 3.63 µM | PC-3 3.35 µM | RPMI-8226 2.12 µM | RXF 393 5.48 µM | SF-268 10.4 µM | SF-295 3.72 µM | SF-539 10.6 µM | SK-MEL-28 13.7 µM | SK-MEL-2 8.95 µM | SK-MEL-5 7.93 µM | SK-OV-3 12.7 µM | SN12C 6.04 µM | SNB-19 11.4 µM | SNB-75 2.78 µM | SR 1.86 µM | SW-620 4.18 µM | T47D 8.13 µM | TK-10 6.92 µM | U-251 4.39 µM | UACC-257 8.95 µM | UACC-62 7.52 µM | UO-31 2.42 µM
9.44 µM: HCT-15
